According to patent US10206937B2, “Boronic acid derivatives and therapeutic uses thereof” (Qpex Biopharma, Inc., priority 2014, dated 2019):

System: strains of Enterobacteriaceae producing various carbapenemases (class A, D and B; 169 strains)
Test: Meropenem or tebipenem potentiation by Compounds 97 or 62 (MIC)
Format: cell-based
Outline: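 Meropenem and tebipenem MICs measured alone or with Compound 97 or 62 held at a fixed 8 μg/ml in the growth medium. Panel of 169 clinical Enterobacteriaceae isolates expressing class A, D and B carbapenemases, alone or with other beta-lactamases.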

## C[C@@H](O)[C@H]1C(=O)N2C(C(=O)O)=C(S[C@@H]3CN[C@H](C(=O)N(C)C)C3)[C@H](C)[C@H]12 [M]
CF1022 Citrobacter freundii SHV-12(2be), TEM-OSBL(2b), IMP-8
  Meropenem MIC alone (M): Y (MIC of 1 μg/mL to 10 μg/mL)
CF1023 Citrobacter freundii SHV-12(2be), TEM-OSBL(2b), CTX-M-3, CMY-34, NDM-1
  Meropenem MIC alone (M): Z (MIC of greater than 10 μg/mL)
EC1061 Escherichia coli NDM-1, CMY-6
  Meropenem MIC alone (M): Z (MIC of greater than 10 μg/mL)
EC1069 Escherichia coli CTX-M-27, NDM-1
  Meropenem MIC alone (M): Z (MIC of greater than 10 μg/mL)
EC1070 Escherichia coli TEM-OSBL(2b), CMY-42, NDM-5
  Meropenem MIC alone (M): Z (MIC of greater than 10 μg/mL)
EC1072 Escherichia coli CTX-M-3, NDM-1
  Meropenem MIC alone (M): Z (MIC of greater than 10 μg/mL)
ECL1045 Enterobacter cloacae VIM-1
  Meropenem MIC alone (M): Z (MIC of greater than 10 μg/mL)
ECL1055 Enterobacter cloacae KPC-3, TEM
  Meropenem MIC alone (M): Y (MIC of 1 μg/mL to 10 μg/mL)
ECL1057 Enterobacter cloacae NDM-1, TEM-1, CTX-M-15
  Meropenem MIC alone (M): Z (MIC of greater than 10 μg/mL)
ECL1084 Enterobacter cloacae CTX-M-15, ACT-16, NDM-1
  Meropenem MIC alone (M): Z (MIC of greater than 10 μg/mL)
ECL1085 Enterobacter cloacae SHV-31(2be), TEM-1(2b), CTX-M-15, NDM-1
  Meropenem MIC alone (M): Z (MIC of greater than 10 μg/mL)
ECL1087 Enterobacter cloacae VIM-1
  Meropenem MIC alone (M): Z (MIC of greater than 10 μg/mL)
ECL1090 Enterobacter cloacae TEM-1(2b), CTX-M-22, ACT-type, IMP-8
  Meropenem MIC alone (M): Y (MIC of 1 μg/mL to 10 μg/mL)
ECL1092 Enterobacter cloacae TEM-OSBL(2b), ACT-32, VIM-1
  Meropenem MIC alone (M): Y (MIC of 1 μg/mL to 10 μg/mL)
ECL1093 Enterobacter cloacae TEM-OSBL(2b), ACT-32, VIM-1
  Meropenem MIC alone (M): Y (MIC of 1 μg/mL to 10 μg/mL)
ECL1094 Enterobacter cloacae VIM-1
  Meropenem MIC alone (M): Z (MIC of greater than 10 μg/mL)
ECL1095 Enterobacter cloacae SHV-12(2be), TEM-OSBL(2b), CMY-4, ACT-16, VIM-4, OXA-48(c)
  Meropenem MIC alone (M): Z (MIC of greater than 10 μg/mL)
ECL1096 Enterobacter cloacae CMY-4, VIM-4, OXA-48(c)
  Meropenem MIC alone (M): Z (MIC of greater than 10 μg/mL)
ECL1097 Enterobacter cloacae SHV-31(2be), TEM-OSBL(2b), CTX-M-15, ACT-31, NDM-1
  Meropenem MIC alone (M): Z (MIC of greater than 10 μg/mL)
ECL1098 Enterobacter cloacae TEM-OSBL(2b), DHA-1, ACT-16, NDM-1
  Meropenem MIC alone (M): Z (MIC of greater than 10 μg/mL)
KP1054 Klebsiella pneumoniae VIM-1, SHV-11
  Meropenem MIC alone (M): Y (MIC of 1 μg/mL to 10 μg/mL)
KP1059 Klebsiella pneumoniae VIM-1, SHV-11
  Meropenem MIC alone (M): Z (MIC of greater than 10 μg/mL)
KP1061 Klebsiella pneumoniae KPC-3, TEM-1, SHV-11
  Meropenem MIC alone (M): Z (MIC of greater than 10 μg/mL)
KP1064 Klebsiella pneumoniae KPC-2, TEM-1, SHV-11
  Meropenem MIC alone (M): Z (MIC of greater than 10 μg/mL)
KP1065 Klebsiella pneumoniae VIM-1, SHV-11
  Meropenem MIC alone (M): Y (MIC of 1 μg/mL to 10 μg/mL)
KP1070 Klebsiella pneumoniae KPC-2, SHV-11, TEM-1
  Meropenem MIC alone (M): Z (MIC of greater than 10 μg/mL)
KP1074 Klebsiella pneumoniae KPC-3, SHV-11, TEM
  Meropenem MIC alone (M): Z (MIC of greater than 10 μg/mL)
KP1081 Klebsiella pneumoniae NDM-1, TEM-1, SHV-11, CMY-6, CTX-M-15
  Meropenem MIC alone (M): Z (MIC of greater than 10 μg/mL)
KP1158 Klebsiella pneumoniae KPC-2, VIM-1
  Meropenem MIC alone (M): Z (MIC of greater than 10 μg/mL)
KP1159 Klebsiella pneumoniae SHV-1(2b), CTX-M-15, IMP-4
  Meropenem MIC alone (M): Z (MIC of greater than 10 μg/mL)
KP1160 Klebsiella pneumoniae SHV-28(2be), CTX-M-15, IMP-26
  Meropenem MIC alone (M): Z (MIC of greater than 10 μg/mL)
KP1161 Klebsiella pneumoniae NDM-1
  Meropenem MIC alone (M): Z (MIC of greater than 10 μg/mL)
KP1162 Klebsiella pneumoniae SHV-1(2b), CTX-M-15, IMP-4
  Meropenem MIC alone (M): Z (MIC of greater than 10 μg/mL)
KP1163 Klebsiella pneumoniae SHV-11(2b), MOX-1, KPC-2, VIM-1
  Meropenem MIC alone (M): Z (MIC of greater than 10 μg/mL)
KP1164 Klebsiella pneumoniae SHV-12(2be), VIM-1
  Meropenem MIC alone (M): Z (MIC of greater than 10 μg/mL)
KP1165 Klebsiella pneumoniae SHV-11(2b), CTX-M-15, VIM-27
  Meropenem MIC alone (M): Z (MIC of greater than 10 μg/mL)
KP1166 Klebsiella pneumoniae SHV-5(2be), VIM-26
  Meropenem MIC alone (M): Z (MIC of greater than 10 μg/mL)
KP1168 Klebsiella pneumoniae SHV-11(2b), CTX-M-15, VIM-27
  Meropenem MIC alone (M): Z (MIC of greater than 10 μg/mL)
KP1169 Klebsiella pneumoniae SHV-11(2b), VIM-1
  Meropenem MIC alone (M): Z (MIC of greater than 10 μg/mL)
KP1170 Klebsiella pneumoniae SHV-11(2b), CTX-M-15, NDM-1
  Meropenem MIC alone (M): Z (MIC of greater than 10 μg/mL)
KP1172 Klebsiella pneumoniae SHV-31(2be), DHA-1, VIM-1
  Meropenem MIC alone (M): Z (MIC of greater than 10 μg/mL)
KP1173 Klebsiella pneumoniae TEM-33(2br), CTX-M-15, IMP-1
  Meropenem MIC alone (M): Y (MIC of 1 μg/mL to 10 μg/mL)
KP1174 Klebsiella pneumoniae CTX-M-14, IMP-1
  Meropenem MIC alone (M): Y (MIC of 1 μg/mL to 10 μg/mL)
KP1175 Klebsiella pneumoniae SHV-OSBL(2b), VIM-1
  Meropenem MIC alone (M): Z (MIC of greater than 10 μg/mL)
KP1176 Klebsiella pneumoniae SHV-12(2be), TEM-OSBL(2b), CMY-13, KPC-2, VIM-1
  Meropenem MIC alone (M): Z (MIC of greater than 10 μg/mL)
KP1177 Klebsiella pneumoniae SHV-OSBL(2b), TEM-OSBL(2b), CTX-M-15, NDM-1
  Meropenem MIC alone (M): Z (MIC of greater than 10 μg/mL)
KP1178 Klebsiella pneumoniae SHV-OSBL(2b), TEM-OSBL(2b), CTX-M-15, NDM-1
  Meropenem MIC alone (M): Z (MIC of greater than 10 μg/mL)
KP1179 Klebsiella pneumoniae SHV-12(2be), TEM-OSBL(2b), CTX-M-15, NDM-7
  Meropenem MIC alone (M): Z (MIC of greater than 10 μg/mL)
KP1180 Klebsiella pneumoniae SHV-OSBL(2b), TEM-OSBL(2b), CTX-M-15, DHA-1, IMP-26
  Meropenem MIC alone (M): Y (MIC of 1 μg/mL to 10 μg/mL)
KP1181 Klebsiella pneumoniae SHV-OSBL(2b), CTX-M-15, IMP-26
  Meropenem MIC alone (M): Z (MIC of greater than 10 μg/mL)
